# Assays:
# Test in all cases: CellTiter Glo cell viability assay
# [1] = test system: Neuroblastoma CHP-212/CRL-2273; format: cell-based; settings: Homo sapiens, 11 dilutions 3-0.00001 μM
# Experimental: (§1) 1.7*10^3 cells/well were seeded in quadruplicates in 96-well plate after plating. Drugs were added at 5 μM and 2-fold dilutions over 18 concentrations (0.000038146-5 […] range) to generate a dose-response curve. Cell growth was assessed on day 1, 3 and 5 after drug treatments using the CellTiter Glo Luminescence Cell Viability Assay (Promega) according to manufacturer's protocol. Thermo Scientific Varioskan LUX Multimode Microplate instrument was used for plate reading. Data are expressed as mean luminescence (arbitrary units) ±S.D.
# (§2) Cell Viability Assays were employed to determine the concentration of Compound 1 (KYN-001) and analogues where the response is reduced by half. For each treatment of cancer cells, 1, 2, 5, 10 and 20 μM solutions of compounds were applied. GraphPad Prism 7 software was used to fit dose response curves. Relative Luminescence Units were plotted against the log values of the doses used and the nonlinear regression model was used for data analysis.
# (§3) IC50 (μM) values correspond to log(inhibitor) vs. response (four parameters) and dose-response graphs were generated using GraphPad Prism8.
# [2] = test system: Neuroblastoma SK-N-FI/CRL-2142; format: cell-based; settings: Homo sapiens, 11 dilutions 3-0.00001 μM
# Experimental: as §1, §2, §3
# [3] = test system: Osteosarcoma MG-63/CRL-1427; format: cell-based; settings: Homo sapiens, 11 dilutions 3-0.00001 μM
# Experimental: as §1, §2, §3
# [4] = test system: Colon cancer HT-29/HTB-38; format: cell-based; settings: Homo sapiens, 11 dilutions 3-0.00001 μM
# Experimental: as §1, §2, §3
# [5] = test system: Neuroblastoma SK-N-DZ/CRL-2149; format: cell-based; settings: Homo sapiens, 11 dilutions 3-0.00001 μM
# Experimental: as §1, §2, §3
# [6] = test system: Liver cancer SNU-449/CRL-2234; format: cell-based; settings: Homo sapiens, 11 dilutions 3-0.00001 μM
# Experimental: as §1, §2, §3
# [7] = test system: Muscle Ewing's Sarcoma A-673/CRL-1598; format: cell-based; settings: Homo sapiens, A673, 11 dilutions 3-0.00001 μM
# Experimental: as §1, §2, §3
# [8] = test system: Colon cancer SW620/CCL-227; format: cell-based; settings: Homo sapiens, SW-620, 11 dilutions 3-0.00001 μM
# Experimental: as §1, §2, §3
# [9] = test system: Neuroblastoma BE(2)-C/CRL-2268; format: cell-based; settings: Homo sapiens, 11 dilutions 3-0.00001 μM
# Experimental: as §1, §2, §3
# Pancreatic CAPAN-1 = format: cell-based; settings: Homo sapiens; Capan-1/HTB-79; 11 dilutions 3-0.00001 μM
# Rhabomyosarcoma A-204 = format: cell-based; settings: Homo sapiens, A204; A-204/HTB-82; 11 dilutions 3-0.00001 μM; read-out: IC50
# Experimental: as §1, §2
# (§4) The protocol for cell proliferation was optimized for Compound 8 (KYN-119) to enable a more accurate assessment of its low IC50 value. In this protocol, 18 dosages (2 fold dilutions ranging from 0.000038146 to 5 μM) were applied to cells seeded in 96-well plates, and Luminescence was measured after 1, 3 and 5 days upon treatments.
# Bladder RT4 = format: cell-based; settings: Homo sapiens; RT4/HTB-2; 11 dilutions 3-0.00001 μM; read-out: IC50
# Experimental: as §1, §2, §4
# Kidney 769-P = format: cell-based; settings: Homo sapiens; 769-P/CRL-1933; 11 dilutions 3-0.00001 μM; read-out: IC50
# Experimental: as §1, §2, §4
# Pancreatic HPAFII = format: cell-based, human; settings: Homo sapiens; HPAF-II/CRL-1997; 11 dilutions 3-0.00001 μM; read-out: IC50
# Experimental: as §1, §2, §4
# Liver SNU-423 = format: cell-based, human; settings: Homo sapiens; SNU-423/CRL-2238; 11 dilutions 3-0.00001 μM; read-out: IC50
# Experimental: as §1, §2, §4
# Kidney Caki-1 = format: cell-based, human; settings: Homo sapiens; Caki-1/HTB-46; 11 dilutions 3-0.00001 μM; read-out: IC50
# Experimental: as §1, §2, §4
# Tongue CAL 27 = format: cell-based, human; settings: Homo sapiens; CAL 27/CRL-2095; 11 dilutions 3-0.00001 μM; read-out: IC50
# Experimental: as §1, §2, §4
# [10] = test system: Hypo-pharynx UPCI: SCC152; format: cell-based, human; settings: Homo sapiens; UPCI: SCC152/CRL-3240; 11 dilutions 3-0.00001 μM; read-out: IC50
# Experimental: as §1, §2, §4
# Ewing's Sarcoma HTB-166 = format: cell-based, human; settings: Homo sapiens; RD-ES/HTB-166; 11 dilutions 3-0.00001 μM; read-out: IC50
# Experimental: as §1, §2, §4
# Lung NCI-H1573 = format: cell-based, human; settings: Homo sapiens; NCI-H1573/CRL-5877; 11 dilutions 3-0.00001 μM; read-out: IC50
# Experimental: as §1, §2, §4
# Bladder T24 = format: cell-based, human; settings: Homo sapiens; T24/HTB-4; 11 dilutions 3-0.00001 μM; read-out: IC50
# Experimental: as §1, §2, §4
# Liver SNU-398 = format: cell-based, human; settings: Homo sapiens; SNU-398/CRL-2233; 11 dilutions 3-0.00001 μM; read-out: IC50
# Experimental: as §1, §2, §4
# Tongue UPCI: SCC090 = format: cell-based, human; settings: Homo sapiens; UPCI: SCC090/CRL-3239; 11 dilutions 3-0.00001 μM; read-out: IC50
# Experimental: as §1, §2, §4
# Pancreatic PANC-1 = format: cell-based, human; settings: Homo sapiens; PANC-1/CRL-1469; 11 dilutions 3-0.00001 μM; read-out: IC50
# Experimental: as §1, §2, §4
# Rhabomyosarcoma TE 159.T = format: cell-based, human; settings: Homo sapiens; TE 159.T/CRL-7752; 11 dilutions 3-0.00001 μM; read-out: IC50
# Experimental: as §1, §2, §4
IC50 [1],IC50 [2],IC50 [3],IC50 [4],IC50 [5],IC50 [6],IC50 [7],IC50 [8],IC50 [9],IC50 (Rhabomyosarcoma A-204),IC50 (Liver SNU-423),IC50 (Ewing's Sarcoma HTB-166),IC50 (Lung NCI-H1573),Compound,IC50 (Pancreatic CAPAN-1),IC50 (Bladder RT4),IC50 (Kidney 769-P),IC50 (Pancreatic HPAFII),IC50 (Kidney Caki-1),IC50 (Tongue CAL 27),IC50 [10],further results
26.1 nM,48.5 nM,31.3 nM,1990 nM,140 nM,64 nM,312 nM,103 nM,54.8 nM,131 nM,119 nM,338 nM,55.8 nM,"CCOc1cc(O)cc(/C=C/c2ccc(O)c(O)c2)c1CC=C(C)C [Compound 20, (E)-4-(3-Ethoxy-5-hydroxy-2-(3-methylbut-2-en-1-yl)styryl)benzene-1,2-diol]",2240 nM,2010 nM,174 nM,638 nM,96.3 nM,40.9 nM,149 nM,IC50 (Bladder T24): 111 nM; IC50 (Liver SNU-398): 110 nM; IC50 (Tongue UPCI: SCC090): 47.8 nM; IC50 (Pancreatic PANC-1): 41.6 nM
3 nM,9.7 nM,4.8 nM,325 nM,16.4 nM,10.2 nM,112 nM,18 nM,11.2 nM,25.3 nM,27.5 nM,65.1 nM,21.2 nM,"CCOc1cc(O)cc(/C=C/c2ccc(NC=O)c(OC)c2)c1CC=C(C)C [Compound 28, (E)-N-(4-(3-Ethoxy-5-hydroxy-2-(3-methylbut-2-en-1-yl)styryl)-2-methoxyphenyl)formamide]",735 nM,463 nM,40.1 nM,111 nM,7.2 nM,5 nM,20.5 nM,IC50 (Bladder T24): 22.1 nM; IC50 (Liver SNU-398): 32.7 nM; IC50 (Tongue UPCI: SCC090): 56.1 nM; IC50 (Pancreatic PANC-1): 17.8 nM

Compound,IC50 [1],IC50 [2],IC50 [3],IC50 [4],IC50 [5],IC50 [6],IC50 [7],IC50 [8],IC50 [9],IC50 (Rhabomyosarcoma A-204),IC50 (Liver SNU-423),IC50 (Ewing's Sarcoma HTB-166),IC50 (Lung NCI-H1573),IC50 (Pancreatic CAPAN-1),IC50 (Bladder RT4),IC50 (Kidney 769-P),IC50 (Pancreatic HPAFII),IC50 (Kidney Caki-1),IC50 (Tongue CAL 27),IC50 [10],further results
"COc1cc(/C=C/c2cc(O)cc(OC)c2CC=C(C)C)ccc1NC=O [Compound 27, (E)-N-(4-(5-hydroxy-3-methoxy-2-(3-methylbut-2-en-1-yl)styryl)-2-methoxyphenyl)formamide]",5.7 nM,15.7 nM,82.5 nM,432 nM,32.6 nM,15.1 nM,229 nM,31.7 nM,13.6 nM,52.4 nM,53.5 nM,133 nM,48 nM,792 nM,453 nM,110 nM,102 nM,15.4 nM,15 nM,36.6 nM,IC50 (Rhabomyosarcoma TE 159.T): 31 nM; IC50 (Bladder T24): 32.5 nM; IC50 (Liver SNU-398): 54 nM; IC50 (Tongue UPCI: SCC090): 20 nM; IC50 (Pancreatic PANC-1): 28.8 nM

# Source: patent US20260209152A1, “Substituted Hydroxystilbene Compounds and Derivatives, Synthesis and Uses Thereof” (Kynan Duke IP, LLC, priority 2019, published 2026)
